For experiment [1], the system named is human rtTET-expressing ESCs transfected with GFH, H1ANR3 and TBX3. As to the kind of experiment: Hepatic programming efficiency, albumin (ALB) flow analysis. The following applies: for % ALB-expressing cells (hepatic programming efficiency): 0.5 μM added alone along with doxycycline between day 1 and day 7 post-plating, ALB flow analysis on day 13, FIG. 6. The class given is cell-based. An excerpt: Genes that are either implicated in hepatic differentiation during normal mammalian development or enriched in adult hepatocytes were cloned into the PiggyBac vector (FIG. 3) under the control of the […] promoter (Table 1). To find transcription factors that are able to directly impose mature hepatic fate upon human ESCs, various combinations of transgene-expressing PiggyBac vectors along with the hPBase-expressing vector were introduced into the human ESCs having constitutive expression of rtTET through nucleofection (Minis Ingenio Electroporation solution: cat# MIR50114; program: Amaxa B-016). Nucleofected human ESCs were cultured on matrigel in mTeSR1 (Stem Cell Technologies). Following geneticin (100 μg/ml) selection for stable genomic transgene integration (cells were passaged at lease once prior to differentiation), human ESCs were individualized by accutase treatment and plated to matrigel-coated 12-well plates. Doxycycline (1 μg/ml) was added the next day to induce transgene expression in Hepatocyte Maintenance Medium (HMM, Lonza) supplemented with 0.5 μg/ml insulin, 0.1 μM dexamethasone (dex), and 50 ng/ml Oncostatin M (OSM). After transgene induction for the appropriate number of days, doxycycline was removed, and cells were allowed to transition to hepatocyte-like cells and were maintained in HMM supplemented with 0.5 μg/ml insulin, 0.1 μM dex, and 50 ng/ml OSM prior to characterization. Where appropriate, small molecules, such as MEK inhibitor PD0325901, […] kinase/activin receptor like kinase (ALK5) inhibitor A 83-01, and an analogue of the natural signaling molecule cyclic AMP 8-Bromoadenosine 3',5'-cyclic monophosphate (8-Br-cAMP), were added during hepatic programming. To determine the effect of MEK inhibitor PD0325901 (P) and TGFβ kinase/activin receptor like kinase (ALK5) inhibitor A 83-01 (A) on hepatic programming efficiency, human rtTET-expressing ESCs transfected with […]3 and TBX3 were plated on matrigel-coated 12-well plates at about 0.2×10^6 cells/well in mTeSR supplemented with 10 μM HA100 on day 0. PD0325901 (0.5 μM), A 83-01 (0.5 μM) or both were added along with doxycycline between day 1 and day 7 post-plating. Cells were collected for albumin (ALB) flow analysis on day 13 post-plating. […] To determine the effect of cyclic AMP analog 8-Br-cAMP on hepatic programming, human rtTET-expressing ESCs transfected with […]3 and TBX3 were plated on matrigel-coated 12-well plates at about 0.2×10^6 cells/well in mTeSR supplemented with 10 μM HA100 on day 0. Doxycycline (1 μg/ml), P and A were added between day 1 and day 7 post-plating. Following the removal of doxycycline, P and A on day 7, different concentrations of 8-Br-cAMP were added to promote hepatic transition. Cells were collected for ALB flow analysis on day 13 post-plating.

The subject of experiment [2] is MEK1 and MEK2. The following applies: Bain et al., 2007; cited from earlier work.

The structures appear in SMILES notation.

For `Nc1ncnc2c1nc(Br)n2[C@@H]1O[C@@H]2COP(=O)(O)O[C@H]2[C@H]1O` [8-Br-cAMP, 8-Bromoadenosine 3′,5′-cyclic monophosphate], the “saturation concentration for improvement of hepatic programming” value in experiment [1] (added from day 7 after removal of doxycycline, P and A, ALB flow analysis day 13, FIG. 8) was ~200 µM. In addition, the “hepatic programming (ALB flow analysis)” value in experiment [1] (different concentrations added from day 7 after removal of doxycycline, P and A, ALB flow analysis day 13, FIG. 8) is recorded as “significantly improved”. For `O=C(NOC[C@H](O)CO)c1ccc(F)c(F)c1Nc1ccc(I)cc1F` [PD0325901], in experiment [1], the “% ALB-expressing cells (hepatic programming efficiency)” value was “significantly improves”. The same measure, in the same setting: in the case of `Cc1cccc(-c2nn(C(=S)Nc3ccccc3)cc2-c2ccnc3ccccc23)n1` [A 83-01] it was “significantly improves”.

Regarding `O=C(NOCC1CC1)c1ccc(F)c(F)c1Nc1ccc(I)cc1Cl` [PD184352], the “specificity and potency compared to other known MEK inhibitors” value in experiment [2] was “high degree of specificity and potency”.

The values above are taken from patent US20170107486A1, “HEPATOCYTE PRODUCTION VIA FORWARD PROGRAMMING BY COMBINED GENETIC AND CHEMICAL ENGINEERING” (Cellular Dynamics International, Inc., priority 2014, published 2017).
